Assays:
Aβ oligomers [1] = biological target: T1, Aβ oligomers (Homo sapiens, UniProt P05067); test: Isothermal titration calorimetry (ITC) binding to Aβ oligomers; conditions: PBS pH 7.4, 285 K, Aβ 100 µM in cell, ligand 250 µM in syringe, two independent site model
T1 construct: Ser^26 depsipeptide iso-Aβ (1–42) was used; made in house; host or cells: chemical peptide synthesis (no expression host)
Method: The binding affinities of 2b–2i to Aβ oligomers were tested in ITC experiments.
In this work, Ser^26 depsipeptide iso-Aβ (1–42) was used, which was synthesized and purified as described previously. The lyophilized iso-Aβ (1–42) was dissolved in MilliQ water to a concentration of 1 mg mL^−1, sonicated for 3 min and the pH was set to 7.0 to initiate an O to N acyl migration, whereby the native sequence can be readily formed. The sample was incubated at room temperature for 10 min. Then the pH was set to 11 and the sample was kept at room temperature for additional 2 h. After the incubation, the Aβ stock solution was aliquoted and stored at −20 °C until use. To obtain Aβ oligomers, the 1 mg mL^−1 aliquot was diluted to a final concentration of 50 μM with 26.67 mM PBS and the pH was set to 7.4 with 1 M HCl. The sample was incubated at 37 °C for 3 h.
Isothermal calorimetric titrations were performed with a Microcal VP-ITC microcalorimeter in pH 7.4 PBS buffer solution. In individual titrations, 10 µL portions of the ligand containing solution were repeatedly injected from the computer-controlled 300-µL microsyringe at intervals of 300 s into the Aβ oligomer solution prepared in the same buffer as the ligand. All measurements were carried out at 285 K. The Aβ concentration in the cell was 100 µM and the total ligand concentration was 250 µM in the syringe and the titration was stopped when the precipitation of the Aβ aggregates became excessive. Control experiments were performed by injecting the ligand into a cell containing buffer with no target, and the heats of dilution were subtracted from those measured in the presence of Aβ. The experimental data were fitted to the two independent site binding models by using a nonlinear least-squares procedure, with ΔHb, ΔHb’, Kd, Kd’ ([…]), n and n’ (number of binding sites for monomer), as adjustable parameters.

Aβ oligomers [2] = biological target: T1, Aβ oligomers; test: Sandwich ELISA binding of biotin-tagged conjugates to Aβ
From the text: To study the role of certain structure elements in the binding affinity, a set of new foldamer sequences were designed (Figure 2) and ligated to lysine-dendron scaffolds having a focal symmetry. This template with biotin affinity tag can be easily synthesized by solid phase peptide synthesis and immobilized on a streptavidin coated support such as the surface of the ELISA plate. Structural changes included fine-tuning the side-chain properties (2b–2d), changing the position of ionic residues (2e) and introducing bulky bicyclic side-chains (2f–2i).
The binding affinities of 2b–2i to Aβ oligomers were tested in ITC experiments. In such cases where the fitting failed due to low heat response or poor solubility, sandwich ELISA experiments were performed to enable the comparison of all conjugates (see Supporting Information for details).
The apparent dissociation constants for the complete set of new conjugates were calculated individually from the data of the ELISA experiments as well. Comparing the KD values of 2f–2i in this case, the replacement of ACHC to ABHC had only a minor effect on the Aβ binding. The cyclic β-amino acid ACHC not only provides the helical conformation of such a short foldamer but also protects the ionic residues from solvent upon binding due to its hydrophobicity.

T1 sequence (P05067 672-713 limits assumed): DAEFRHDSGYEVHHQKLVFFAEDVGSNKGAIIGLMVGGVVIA

Structure (SMILES): N=C(N)NCCC[C@@H](CC(=O)N[C@H]1CCCC[C@@H]1C(=O)N[C@H]1CCCC[C@@H]1C(=O)N[C@@H](CCC(=O)O)CC(=O)N[C@H]1CCCC[C@@H]1C(=O)NCC(=O)NCC(=O)N[C@@H](CSC1CC(=O)N(CCC(=O)NCCCC[C@H](NC(=O)CCN2C(=O)CC(SC[C@H](NC(=O)CNC(=O)CNC(=O)[C@H]3CCCC[C@@H]3NC(=O)C[C@H](CCC(=O)O)NC(=O)[C@H]3CCCC[C@@H]3NC(=O)[C@H]3CCCC[C@@H]3NC(=O)C[C@H](CCCNC(=N)N)NC(=O)[C@H]3CCCC[C@@H]3N)C(N)=O)C2=O)C(=O)NCCCC[C@H](NC(=O)[C@H](CCCCNC(=O)CCN2C(=O)CC(SC[C@H](NC(=O)CNC(=O)CNC(=O)[C@H]3CCCC[C@@H]3NC(=O)C[C@H](CCC(=O)O)NC(=O)[C@H]3CCCC[C@@H]3NC(=O)[C@H]3CCCC[C@@H]3NC(=O)C[C@H](CCCNC(=N)N)NC(=O)[C@H]3CCCC[C@@H]3N)C(N)=O)C2=O)NC(=O)CCN2C(=O)CC(SC[C@H](NC(=O)CNC(=O)CNC(=O)[C@H]3CCCC[C@@H]3NC(=O)C[C@H](CCC(=O)O)NC(=O)[C@H]3CCCC[C@@H]3NC(=O)[C@H]3CCCC[C@@H]3NC(=O)C[C@H](CCCNC(=N)N)NC(=O)[C@H]3CCCC[C@@H]3N)C(N)=O)C2=O)C(=O)N[C@@H](CCCCNC(=O)CCCC[C@@H]2SC[C@@H]3NC(=O)N[C@@H]32)C(N)=O)C1=O)C(N)=O)NC(=O)[C@H]1CCCC[C@@H]1N (stereo partly shown) [Compound 2c]
- Kd (Aβ oligomers [1]; KD ITC, first binding stage, Table 1): 2.53 ± 1.81 nM
- Kd (Aβ oligomers [1]; KD ITC, second binding stage, Table 1): 175 ± 46.4 nM
- Kd (Aβ oligomers [2]): 1.92 ± 0.21 nM

Structure (SMILES): N=C(N)NCCC[C@H](NC(=O)[C@H]1CCCC[C@@H]1N)C(=O)N[C@H]1CCCC[C@@H]1C(=O)N[C@H]1CCCC[C@@H]1C(=O)N[C@@H](CC(=O)O)C(=O)N[C@H]1CCCC[C@@H]1C(=O)NCC(=O)NCC(=O)N[C@@H](CSC1CC(=O)N(CCC(=O)NCCCC[C@H](NC(=O)CCN2C(=O)CC(SC[C@H](NC(=O)CNC(=O)CNC(=O)[C@H]3CCCC[C@@H]3NC(=O)[C@H](CC(=O)O)NC(=O)[C@H]3CCCC[C@@H]3NC(=O)[C@H]3CCCC[C@@H]3NC(=O)[C@H](CCCNC(=N)N)NC(=O)[C@H]3CCCC[C@@H]3N)C(N)=O)C2=O)C(=O)NCCCC[C@H](NC(=O)[C@H](CCCCNC(=O)CCN2C(=O)CC(SC[C@H](NC(=O)CNC(=O)CNC(=O)[C@H]3CCCC[C@@H]3NC(=O)[C@H](CC(=O)O)NC(=O)[C@H]3CCCC[C@@H]3NC(=O)[C@H]3CCCC[C@@H]3NC(=O)[C@H](CCCNC(=N)N)NC(=O)[C@H]3CCCC[C@@H]3N)C(N)=O)C2=O)NC(=O)CCN2C(=O)CC(SC[C@H](NC(=O)CNC(=O)CNC(=O)[C@H]3CCCC[C@@H]3NC(=O)[C@H](CC(=O)O)NC(=O)[C@H]3CCCC[C@@H]3NC(=O)[C@H]3CCCC[C@@H]3NC(=O)[C@H](CCCNC(=N)N)NC(=O)[C@H]3CCCC[C@@H]3N)C(N)=O)C2=O)C(=O)N[C@@H](CCCCNC(=O)CCCC[C@@H]2SC[C@@H]3NC(=O)N[C@@H]32)C(N)=O)C1=O)C(N)=O (stereo partly shown) [Compound 2d]
- Kd (Aβ oligomers [2]): 7.7 ± 3.06 nM

Structure (SMILES): N=C(N)NCCC[C@@H](CC(=O)N[C@H]1CCCC[C@@H]1C(=O)N[C@H]1CCCC[C@@H]1C(=O)N[C@@H](CC(=O)O)CC(=O)N[C@H]1CCCC[C@@H]1C(=O)NCC(=O)NCC(=O)N[C@@H](CSC1CC(=O)N(CCC(=O)NCCNC(=O)CCN(CCNC(=O)CCN(CCC(=O)NCCN(CCC(=O)NCCNC(=O)CCN2C(=O)CC(SC[C@H](NC(=O)CNC(=O)CNC(=O)[C@H]3CCCC[C@@H]3NC(=O)C[C@H](CC(=O)O)NC(=O)[C@H]3CCCC[C@@H]3NC(=O)[C@H]3CCCC[C@@H]3NC(=O)C[C@H](CCCNC(=N)N)NC(=O)[C@H]3CCCC[C@@H]3N)C(N)=O)C2=O)CCC(=O)NCCNC(=O)CCN2C(=O)CC(SC[C@H](NC(=O)CNC(=O)CNC(=O)[C@H]3CCCC[C@@H]3NC(=O)C[C@H](CC(=O)O)NC(=O)[C@H]3CCCC[C@@H]3NC(=O)[C@H]3CCCC[C@@H]3NC(=O)C[C@H](CCCNC(=N)N)NC(=O)[C@H]3CCCC[C@@H]3N)C(N)=O)C2=O)CCN(CCC(=O)NCCN(CCC(=O)NCCNC(=O)CCN2C(=O)CC(SC[C@H](NC(=O)CNC(=O)CNC(=O)[C@H]3CCCC[C@@H]3NC(=O)C[C@H](CC(=O)O)NC(=O)[C@H]3CCCC[C@@H]3NC(=O)[C@H]3CCCC[C@@H]3NC(=O)C[C@H](CCCNC(=N)N)NC(=O)[C@H]3CCCC[C@@H]3N)C(N)=O)C2=O)CCC(=O)NCCNC(=O)CCN2C(=O)CC(SC[C@H](NC(=O)CNC(=O)CNC(=O)[C@H]3CCCC[C@@H]3NC(=O)C[C@H](CC(=O)O)NC(=O)[C@H]3CCCC[C@@H]3NC(=O)[C@H]3CCCC[C@@H]3NC(=O)C[C@H](CCCNC(=N)N)NC(=O)[C@H]3CCCC[C@@H]3N)C(N)=O)C2=O)CCC(=O)NCCN(CCC(=O)NCCNC(=O)CCN2C(=O)CC(SC[C@H](NC(=O)CNC(=O)CNC(=O)[C@H]3CCCC[C@@H]3NC(=O)C[C@H](CC(=O)O)NC(=O)[C@H]3CCCC[C@@H]3NC(=O)[C@H]3CCCC[C@@H]3NC(=O)C[C@H](CCCNC(=N)N)NC(=O)[C@H]3CCCC[C@@H]3N)C(N)=O)C2=O)CCC(=O)NCCNC(=O)CCN2C(=O)CC(SC[C@H](NC(=O)CNC(=O)CNC(=O)[C@H]3CCCC[C@@H]3NC(=O)C[C@H](CC(=O)O)NC(=O)[C@H]3CCCC[C@@H]3NC(=O)[C@H]3CCCC[C@@H]3NC(=O)C[C@H](CCCNC(=N)N)NC(=O)[C@H]3CCCC[C@@H]3N)C(N)=O)C2=O)CCC(=O)NCCNC(=O)CCN2C(=O)CC(SC[C@H](NC(=O)CNC(=O)CNC(=O)[C@H]3CCCC[C@@H]3NC(=O)C[C@H](CC(=O)O)NC(=O)[C@H]3CCCC[C@@H]3NC(=O)[C@H]3CCCC[C@@H]3NC(=O)C[C@H](CCCNC(=N)N)NC(=O)[C@H]3CCCC[C@@H]3N)C(N)=O)C2=O)C1=O)C(N)=O)NC(=O)[C@H]1CCCC[C@@H]1N (stereo partly shown) [Compound 6]
- Kd (Aβ oligomers [1]; KD, first binding stage, Table 2): 69 ± 12 nM
- Kd (Aβ oligomers [1]; KD, second binding stage, Table 2): 193 ± 30.5 nM

Structure (SMILES): N=C(N)NCCC[C@@H](CC(=O)N[C@H]1CCCC[C@@H]1C(=O)N[C@@H](CC(=O)O)CC(=O)N[C@H]1CCCC[C@@H]1C(=O)NCC(=O)NCC(=O)N[C@@H](CSC1CC(=O)N(CCC(=O)NCCCC[C@H](NC(=O)CCN2C(=O)CC(SC[C@H](NC(=O)CNC(=O)CNC(=O)[C@H]3CCCC[C@@H]3NC(=O)C[C@H](CC(=O)O)NC(=O)[C@H]3CCCC[C@@H]3NC(=O)C[C@H](CCCNC(=N)N)NC(=O)[C@H]3CCCC[C@@H]3NC(=O)[C@H]3CCCC[C@@H]3N)C(N)=O)C2=O)C(=O)NCCCC[C@H](NC(=O)[C@H](CCCCNC(=O)CCN2C(=O)CC(SC[C@H](NC(=O)CNC(=O)CNC(=O)[C@H]3CCCC[C@@H]3NC(=O)C[C@H](CC(=O)O)NC(=O)[C@H]3CCCC[C@@H]3NC(=O)C[C@H](CCCNC(=N)N)NC(=O)[C@H]3CCCC[C@@H]3NC(=O)[C@H]3CCCC[C@@H]3N)C(N)=O)C2=O)NC(=O)CCN2C(=O)CC(SC[C@H](NC(=O)CNC(=O)CNC(=O)[C@H]3CCCC[C@@H]3NC(=O)C[C@H](CC(=O)O)NC(=O)[C@H]3CCCC[C@@H]3NC(=O)C[C@H](CCCNC(=N)N)NC(=O)[C@H]3CCCC[C@@H]3NC(=O)[C@H]3CCCC[C@@H]3N)C(N)=O)C2=O)C(=O)N[C@@H](CCCCNC(=O)CCCC[C@@H]2SC[C@@H]3NC(=O)N[C@@H]32)C(N)=O)C1=O)C(N)=O)NC(=O)[C@H]1CCCC[C@@H]1NC(=O)[C@H]1CCCC[C@@H]1N (stereo partly shown) [Compound 2e]
- Kd (Aβ oligomers [2]): 2.71 ± 0.21 nM

Reference: publication PMC6222781, “Structural Optimization of Foldamer-Dendrimer Conjugates as Multivalent Agents against the Toxic Effects of Amyloid Beta Oligomers” (Molecules : A Journal of Synthetic Chemistry and Natural …, 2018)
